Tested on: normal human skin xenotransplanted onto beige-SCID mice injected with psoriatic patient NK cells
Assay: Human NK cell-driven psoriasis model: human skin xenotransplanted onto beige-SCID mice
Assay type: in vivo
Conditions: 5 mg/kg/day p.o., b.i.d., 14 days
Description: Healthy human skin pieces having a width of 0.4 mm and surface area of 3×3 cm were provided from residual skin of routine plastic surgery procedures from the Plastic Surgery Department of the Rambam Medical Center, Isreal. In addition, blood samples from psoriatic patients were taken at a volume of 25 mL.
Twenty-one (21) beige-severe combined immunodeficient mice (SCID) (weight about 20 g) were included in this study. Normal human skin was transplanted onto the beige-SCID mice as previously described by Nickoloff et al., 1995; Wrone-Smith, et al., 1996. A sample of each donor was transplanted onto […] so that the three treatment groups (n=7 mice/group) were homogenous.
PBMC from the psoriatic patient blood were isolated and cultured in the presence of IL-2 (100 U/mL of media) for 14 days to activate the NK cells, as previously described by Gilhar et al., J. Invest. Dermatol. 2002, 119(2):384-91. Four weeks following the engraftment, each mouse was injected with 1×10^7 psoriatic patients activated allogeneic NK cells (1×10^7 cells injected/mouse, n=21). Two weeks following the injections, the mice were divided and treated, twice a day for 14 days. All compounds were dosed at 5 mg/kg/day, divided into b.i.d. doses. To perform p.o. administration, mice were held firmly by gently gripping their fur over the neck with thumb and index fingers and restraining the tail with the little finger. A volume of 0.05 mL of a 1 mg/ml aqueous solution of Compound A was administrated twice a day (b.i.d.) with a syringe through a blunt-ended curved feeding tube, which was inserted into the esophagus. The vehicle (negative) control groups received 0.05 mL (b.i.d.) of a 0.5% carboxymethylcellulose and 0.25% Tween 80. […] Two weeks after starting the treatments (4 weeks following the injections), the skins were harvested. Grafts were analyzed by histology and immunohistochemistry.
Determination of Epidermal Thickness: Skin graft histological assessment was performed by light microscopy both before and after transplantation and two blinded observers performed the evaluations. Epidermal thickness was determined with an ocular micrometer, at a minimum of 50 points along the epidermis selected to represent points of maximal and minimal thickness. Thickness of the suprapapillary plate was similarly measured at 50 points for each sample.
Immunohistochemical Staining: Monoclonal antibodies to human antigens used were as follows for immunohistochemistry on frozen sections: anti-HLA-DR (Becton Dickenson, San Jose, Calif.), and anti-CD54 (ICAM-1) (Biodesign, Saco, Me.). Purified murine IgG was used as a control for the above antibodies. Immunohistochemistry was performed on OCT embedded specimens with a biotin-avidin system (Vectostain, Vector Laboratories, Burlingame, Calif.).
Goat anti-human TNF-α (R&D Systems, Minneapolis, Minn.) was used on deparaffinized and peroxidase blocked slides. Sections were treated with citrate buffer, pH=6, in the microwave oven for 20 minutes. The sections were then cooled for 30 minutes at room temperature and blocked for non-specific binding as well as avidin-biotin. All washes were performed with phosphate-buffered saline-saponin. Anti-TNF-α was applied overnight at 4° C. Slides were then incubated with biotinylated rabbit anti goat-IgG (DAKO, Carpinteria, Calif.), followed by streptavidin horseradish peroxidase (HRP) (Jackson Immunoresearch, West Grove, Pa.). The color was developed with 3-amino-9-ethylcarbazole (AEC).
Scoring of Immunohistochemical Staining: Diffuse staining was defined as positive and intense expression of more than 50 percent of the epidermis versus focal staining which was defined as less than 50 percent of the epidermis. Focal staining may represent positive expression of very small areas.
Statistical Analysis: Statistical analysis was carried out using the one-way ANOVA with a Bonferroni Multiple Comparison post-hoc test using Prism 4.00 (GraphPad Software; San Diego, Calif.).

CCOc1cc([C@@H](CS(C)(=O)=O)N2Cc3cccc(NC(=O)C4CC4)c3C2=O)ccc1OC [Compound A, cyclopropyl-N-{2-[(1S)-1-(3-ethoxy-4-methoxyphenyl)-2-(methylsulfonyl)ethyl]-3-oxoisoindoline-4-yl}carboxamide]
HLA-DR staining: number of grafts (of 7) with Diffuse pattern: 4 Diffuse
Histological features: Complete Recovery (grafts of 7): 3/7
Histological features: Partial Recovery (grafts of 7): 1/7
Histological features: Psoriasiform (grafts of 7): 3/7
ICAM-1 staining: number of grafts (of 7) with Diffuse pattern: 3 Diffuse
Recovery, partial or complete (grafts of 7): (4/7)
TNF-α staining: number of grafts (of 7) with Multiple TNF-α positive cells: 3 Multiple
decrease in epidermal thickness compared to vehicle treated animals: ~50%
grafts (of 7) with ICAM-1 reduced to focal or negative expression: 4/7
grafts (of 7) with few or negative TNF-α expressing cells: 4/7
overall response rate (partial plus complete recovery from psoriasis features): 57%
percentage of grafts with HLA-DR reduced to focal or negative expression: 43%
percentage of grafts with ICAM-1 reduced to focal or negative expression: 57%
percentage of grafts with focal HLA-DR expression: 14.3%
percentage of grafts with negative HLA-DR expression: 28.6%
percentage of grafts with reduced TNF-α expression (partial and complete recovery): 57%
Epidermal Thickness, Mean (mean of 7 grafts): 736 μm
Proliferation Index (Ki-67 positive keratinocytes), Mean (mean of 7 grafts): 26.2%
mean epidermal thickness (mean of 7 mice): 736 microns
Epidermal Thickness of individual skin graft (Patient 1): 687 μm
Histological Evaluation of individual skin graft (Patient 1): Partial recovery w/
Proliferation Index of individual skin graft (Patient 1): 41.9%
Epidermal Thickness of individual skin graft (Patient 2): 1098 μm
Histological Evaluation of individual skin graft (Patient 2): Psoriasiform
Proliferation Index of individual skin graft (Patient 2): 47.4%
Epidermal Thickness of individual skin graft (Patient 3): 626 μm
Histological Evaluation of individual skin graft (Patient 3): Psoriasiform
Proliferation Index of individual skin graft (Patient 3): 33.5%
Epidermal Thickness of individual skin graft (Patient 4): 333 μm
Histological Evaluation of individual skin graft (Patient 4): Complete recovery
Proliferation Index of individual skin graft (Patient 4): 12.2%
Epidermal Thickness of individual skin graft (Patient 5): 457 μm
Histological Evaluation of individual skin graft (Patient 5): Complete recovery
Proliferation Index of individual skin graft (Patient 5): 9.2%
Epidermal Thickness of individual skin graft (Patient 6): 627 μm
Histological Evaluation of individual skin graft (Patient 6): Complete recovery
Proliferation Index of individual skin graft (Patient 6): 21.4%
Epidermal Thickness of individual skin graft (Patient 7): 1324 μm
Histological Evaluation of individual skin graft (Patient 7): Psoriasiform
Proliferation Index of individual skin graft (Patient 7): 17.5%
